Laboratory results from patent US20250042918A1, “COMPOUNDS” (Fundación Del Sector Públlco Estatal Centro Nacional De …, priority 2021, published 2025).

How the values were obtained:
HCC38 = assay: In vitro potency against breast cancer cell lines (CellTiter Glo); format: cell-based; conditions: Homo sapiens, HCC38, 72 h; read-out: absolute IC50 HCC38
MDA-MB-361 = assay: as above; format: cell-based; conditions: Homo sapiens, MDA-MB-361, 72 h; read-out: absolute IC50 MDA-MB-361
[1] = tested on: human leukaemia KG-1 subcutaneous xenograft; assay: In vivo efficacy in leukaemia model, subcutaneous xenograft; conditions: KG-1 xenograft, CB-17 SCID mice, oral 25 BID, 50 and 100 mg/kg QD, 21 days
Experimental: The anti-tumour efficacy of the compound of Example 1 was measured in human leukaemia KG-1 subcutaneous xenograft models in CB-17 SCID mice.
Mice grouping was on day 0 (DO) and Example 1 25 BID*21 group was started on the evening of day 0 (DO), other groups were started on the morning of day 1 (D1). At the 21 days of the treatment, 8 h and 24h post the last dose, 4 mice each from vehicle group, Example 1 25 mg/kg BID group and Example 1 50 mg/kg group were subjected tumour collection.
Animals: Female mice (Mus musculus) strain: CB-17 SCID; 6-8 weeks old Body weight: 18-20 g; were obtained from Shanghai Lingchang BioTech Co., Ltd. Of the 59 obtained, 40 were grouped for efficacy study. The mice were kept in individual ventilation cages at constant temperature (20˜26° C.) and humidity (40-70%) with 5 animals in each cage. […]
Tumour Measurements and the Endpoints: The major endpoint was tumour growth delay or cure. Tumour size was measured thrice weekly in two dimensions using a caliper, and the volume was expressed in mm^3 using the formula: V=0.5 a×b^2 where a and b were the long and short diameters of the tumour, respectively. […] TGI was calculated according to the following equation: […]

HL-60 = assay: In vitro potency against leukemia cell lines (CellTiter Glo); format: cell-based; conditions: Homo sapiens, 72 hours, read-out: absolute IC50 HL-60
Experimental: (§1) To prepare the complete medium FBS and appropriate additives were added according to the information sheet provided by the vendor and mixed gently. The cell name and complete medium and passage number marked on the flask were checked, and the culture medium removed and discarded using a vacuum pump. […] 3.0 ml of Trypsin-EDTA solution was added to the flask and the cells observed under an inverted microscope until cell layer is dispersed. 8.0 ml of complete growth medium was added and the cells aspirated by gently pipetting. The cell suspension was transferred to a centrifuge tube and centrifuged at 800-1000 rpm for 3-5 minutes. The supernatant was discarded using a vacuum pump, and an appropriate volume of complete medium added. The cell pellet was suspended by gently pipetting, and the cell numbers counted with Vi-cell XR and the cells adjusted to appropriate density. 100 μL of cell suspension to 96-well opaque-walled clear bottom plates was added according to the planned plate layout and the plates placed in the CO2 incubator overnight.
(§2) c. […] Meanwhile the day 0 plate was measured by Cell TiterGlo as listed below.
(§3) d. Cells were incubated with the compounds for 72 h at 5% CO2, 37° C.
(§4) The plate and its contents were equilibrated to room temperature for approximately 30 minutes, after which 100 μL of CellTiter-Glo reagent was added to the assay plate by Multidrop Combi instrument and the contents mixed for 10 minutes on an orbital shaker to induce cell lysis. The plate was allowed to incubate at room temperature for 10 minutes to stabilize luminescent signal and the clear bottom pasted with white back seal and the luminescence recorded with Enspire with the settings: Luminescence, measurement time 0.1 ms.
(§5) In all cases, the incubation time was 72 hours and the cell lines were grown as a suspension. The seeding density was […] in a 96 well plate.

Jeko-1 = assay: as above; format: cell-based; conditions: Homo sapiens, 72 hours, read-out: absolute IC50 JeKo-1
Experimental: as §1, §2, §3, §4, §5

KG-1 = assay: as above; format: cell-based; conditions: Homo sapiens, 72 hours, read-out: absolute IC50 KG-1
Experimental: as §1, §2, §3, §4, §5

Kasumi-3 = assay: as above; format: cell-based; conditions: 72 hours, read-out: absolute IC50 Kasumi-3
Experimental: as §1, §2, §3, §4, §5

MV-4-11 = assay: as above; format: cell-based; conditions: Homo sapiens, MV4-11; 72 hours; read-out: absolute IC50 MV-4-11
Experimental: as §1, §2, §3, §4, §5

Molm-13 = assay: as above; format: cell-based; conditions: Homo sapiens, 72 hours, read-out: absolute IC50 Molm-13
Experimental: as §1, §2, §3, §4, §5

OCI-M1 = assay: as above; format: cell-based; conditions: 72 hours, read-out: absolute IC50 OCI-M1
Experimental: as §1, §2, §3, §4, §5

Question: With `CN1CCOc2c1c(N[C@H]1CC[C@@](C)(O)CC1)nn1c(-c3cccc(OC(F)(F)F)c3)nnc21` [Example 1, 1-Methyl-4-[6-methyl-3-(3-trifluoromethoxy-phenyl)-7,8-dihydro-6H-9-oxa-1,2,3a,4,6-pentaaza-cyclopenta[a]naphthalen-5-ylamino]-cyclohexanol] as the compound, how does the IC50 (HCC38) read?
Answer: Its IC50 is 5.56 µM.

Question: And the IC50 (MDA-MB-361)?
Answer: The IC50 was 9 µM.

Question: What about the “anti-tumour efficacy (tumour volume)” value [1] of the same compound?
Answer: The value was “effective”.

Question: And the IC50 (HL-60)?
Answer: Its IC50 is 8.75 µM.

Question: What about the IC50 (Jeko-1) of the same compound?
Answer: Its IC50 is 6.54 µM.

Question: What about the IC50 (KG-1) of the same compound?
Answer: Its IC50 is 0.715 µM.

Question: And the IC50 (Kasumi-3)?
Answer: Its IC50 is 0.232 µM.

Question: What about the IC50 (MV-4-11) of the same compound?
Answer: The IC50 was 0.907 µM.

Question: What about the IC50 (Molm-13) of the same compound?
Answer: Its IC50 is 9.34 µM.

Question: What about the IC50 (OCI-M1) of the same compound?
Answer: The IC50 was > 10 µM.
